Among the data in ChEMBL document CHEMBL1201862, “PubChem BioAssay data set” (2004) are IC50 and EC50 values, retold here.

Assay [1] has as its system HEK293. Kind of assay: cells. The format is functional, cell-based. To be noted: Homo sapiens.
Assay [2] concerns the target T1, RNA-binding protein pos-1 (Caenorhabditis elegans, UniProt G5EF15).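 Further: purified POS-1 fused to maltose binding protein made in E. coli; potency of compounds blocking POS-1 binding to fluorescent RNA.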
T1 sequence (G5EF15 whole entry): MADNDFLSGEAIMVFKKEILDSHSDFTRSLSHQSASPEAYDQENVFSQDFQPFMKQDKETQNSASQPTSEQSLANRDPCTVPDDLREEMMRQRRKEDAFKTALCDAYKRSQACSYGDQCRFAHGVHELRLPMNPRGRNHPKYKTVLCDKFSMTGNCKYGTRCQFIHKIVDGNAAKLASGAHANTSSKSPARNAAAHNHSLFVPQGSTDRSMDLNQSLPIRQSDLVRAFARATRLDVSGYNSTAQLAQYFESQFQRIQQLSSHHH
Kind of assay: inhibitors of POS-1/mex-3 RNA binding, dose response, biochemical, fluorescence polarization (AID 1964). (In general: Polarisation of emitted light reports the rotation of a fluorescent probe.)

Assay [3] concerns the target T2, Zinc finger protein mex-5 (Caenorhabditis elegans, UniProt Q9XUB2).
T2 sequence (Q9XUB2 whole entry): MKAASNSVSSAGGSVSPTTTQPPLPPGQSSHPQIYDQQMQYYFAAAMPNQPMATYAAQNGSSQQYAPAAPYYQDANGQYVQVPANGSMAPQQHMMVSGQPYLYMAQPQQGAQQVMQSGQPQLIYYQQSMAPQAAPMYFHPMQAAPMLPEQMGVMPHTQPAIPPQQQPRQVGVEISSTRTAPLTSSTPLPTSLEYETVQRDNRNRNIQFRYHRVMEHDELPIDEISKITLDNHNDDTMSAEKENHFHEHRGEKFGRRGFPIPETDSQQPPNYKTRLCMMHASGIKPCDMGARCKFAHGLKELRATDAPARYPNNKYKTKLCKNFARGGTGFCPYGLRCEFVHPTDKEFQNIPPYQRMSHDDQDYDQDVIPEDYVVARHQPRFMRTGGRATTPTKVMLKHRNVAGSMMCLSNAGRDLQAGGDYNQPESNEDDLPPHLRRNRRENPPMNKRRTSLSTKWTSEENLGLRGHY
Kind of assay: MEX-5/TCR-2 RNA interaction inhibitors, dose response, biochemical, C. elegans, fluorescence polarization (AID 1960).

In assay [4] the target is T3, Nuclear receptor subfamily 0 group B member 1 (Homo sapiens, UniProt P51843).
T3 sequence (P51843 whole entry): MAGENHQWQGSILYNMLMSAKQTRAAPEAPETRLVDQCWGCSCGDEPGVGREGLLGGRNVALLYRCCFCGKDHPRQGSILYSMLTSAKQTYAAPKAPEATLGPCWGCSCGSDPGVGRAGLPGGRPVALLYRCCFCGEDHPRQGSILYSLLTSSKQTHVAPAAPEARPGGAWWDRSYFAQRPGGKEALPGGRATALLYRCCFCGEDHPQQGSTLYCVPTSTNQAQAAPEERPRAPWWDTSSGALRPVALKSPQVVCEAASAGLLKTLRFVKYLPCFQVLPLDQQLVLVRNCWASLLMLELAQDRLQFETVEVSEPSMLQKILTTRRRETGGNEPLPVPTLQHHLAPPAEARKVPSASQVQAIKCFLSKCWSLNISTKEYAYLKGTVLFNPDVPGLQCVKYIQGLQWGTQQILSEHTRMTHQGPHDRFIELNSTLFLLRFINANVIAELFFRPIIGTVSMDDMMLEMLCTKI
Kind of assay: Luminescence-based cell-based high throughput dose response assay for inhibitors of the orphan nuclear receptor subfamily 0, group B, member 1 (DAX1; NR0B1). [Related pubchem assays (depositor defined):AID504766, AID504790]. The format is functional.

The target of assay [5] is T4, Type-1 angiotensin II receptor (Homo sapiens, UniProt P30556).
T4 sequence (P30556 whole entry): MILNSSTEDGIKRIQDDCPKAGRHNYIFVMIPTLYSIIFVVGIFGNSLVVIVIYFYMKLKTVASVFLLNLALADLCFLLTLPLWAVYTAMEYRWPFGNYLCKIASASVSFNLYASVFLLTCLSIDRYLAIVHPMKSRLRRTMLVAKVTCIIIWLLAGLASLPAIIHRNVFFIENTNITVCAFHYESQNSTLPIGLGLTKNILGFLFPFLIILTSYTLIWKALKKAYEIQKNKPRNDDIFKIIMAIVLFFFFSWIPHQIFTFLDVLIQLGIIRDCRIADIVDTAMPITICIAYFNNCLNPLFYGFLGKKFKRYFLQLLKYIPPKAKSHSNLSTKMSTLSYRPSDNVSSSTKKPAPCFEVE
Kind of assay: AT1 receptor antagonists, dose response, selectivity assay for APJ receptor antagonist project, cell-based, uHTS hits (AID 463214).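 Further: antagonist potency against angiotensin II stimulated AT1 response.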 Format: functional.

The nature of assay [6]: NIH-3T3 fibroblast cytotoxicity, dose response, cytotoxicity control, cell-based, fluorescence, Alamar Blue, secondary assay (AID 2327).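 Further: NIH-3T3 mouse fibroblasts cultured with fluconazole at 8 µg/mL.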 The format is functional. In general terms: Alamar Blue is a resazurin reagent that responds to reducing activity.
A further assay deals with Beta-galactosidase (Escherichia coli, UniProt Q8VNN2). Put plainly: PubChem AID 485352. Format: functional.
Sequence of Beta-galactosidase (Q8VNN2 whole entry): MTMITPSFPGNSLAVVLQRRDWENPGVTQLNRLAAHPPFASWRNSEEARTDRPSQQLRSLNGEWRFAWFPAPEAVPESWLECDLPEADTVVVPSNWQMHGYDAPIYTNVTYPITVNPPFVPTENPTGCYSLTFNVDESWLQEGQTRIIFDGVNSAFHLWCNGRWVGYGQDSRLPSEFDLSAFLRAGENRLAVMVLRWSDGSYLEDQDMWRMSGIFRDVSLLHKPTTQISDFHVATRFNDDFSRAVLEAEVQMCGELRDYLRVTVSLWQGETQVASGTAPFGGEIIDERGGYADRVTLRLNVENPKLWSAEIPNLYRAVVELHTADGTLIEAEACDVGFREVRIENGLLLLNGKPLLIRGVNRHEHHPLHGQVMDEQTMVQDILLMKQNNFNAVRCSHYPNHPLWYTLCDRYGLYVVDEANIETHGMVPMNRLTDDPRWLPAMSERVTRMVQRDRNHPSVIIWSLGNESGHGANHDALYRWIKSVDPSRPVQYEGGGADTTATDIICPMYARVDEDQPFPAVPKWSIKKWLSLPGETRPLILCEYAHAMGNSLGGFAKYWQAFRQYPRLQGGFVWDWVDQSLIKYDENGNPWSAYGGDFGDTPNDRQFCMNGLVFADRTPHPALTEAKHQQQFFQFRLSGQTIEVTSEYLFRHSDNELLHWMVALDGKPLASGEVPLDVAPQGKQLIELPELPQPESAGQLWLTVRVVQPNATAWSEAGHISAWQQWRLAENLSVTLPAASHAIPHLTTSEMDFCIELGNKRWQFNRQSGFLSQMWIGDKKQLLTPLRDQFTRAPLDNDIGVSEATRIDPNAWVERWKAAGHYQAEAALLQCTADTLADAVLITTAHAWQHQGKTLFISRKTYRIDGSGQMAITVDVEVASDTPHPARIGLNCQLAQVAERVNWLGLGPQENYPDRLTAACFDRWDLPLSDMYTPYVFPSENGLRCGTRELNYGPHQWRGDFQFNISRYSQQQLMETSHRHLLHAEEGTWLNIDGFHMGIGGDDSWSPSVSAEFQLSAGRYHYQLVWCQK
In assay [7] the target is T5, Serine/threonine-protein phosphatase (Candida dubliniensis (strain CD36 / CBS 7987 / NCPF 3949 / NRRLY-17841) (Yeast), UniProt B9W6M3).
T5 sequence (B9W6M3 whole entry): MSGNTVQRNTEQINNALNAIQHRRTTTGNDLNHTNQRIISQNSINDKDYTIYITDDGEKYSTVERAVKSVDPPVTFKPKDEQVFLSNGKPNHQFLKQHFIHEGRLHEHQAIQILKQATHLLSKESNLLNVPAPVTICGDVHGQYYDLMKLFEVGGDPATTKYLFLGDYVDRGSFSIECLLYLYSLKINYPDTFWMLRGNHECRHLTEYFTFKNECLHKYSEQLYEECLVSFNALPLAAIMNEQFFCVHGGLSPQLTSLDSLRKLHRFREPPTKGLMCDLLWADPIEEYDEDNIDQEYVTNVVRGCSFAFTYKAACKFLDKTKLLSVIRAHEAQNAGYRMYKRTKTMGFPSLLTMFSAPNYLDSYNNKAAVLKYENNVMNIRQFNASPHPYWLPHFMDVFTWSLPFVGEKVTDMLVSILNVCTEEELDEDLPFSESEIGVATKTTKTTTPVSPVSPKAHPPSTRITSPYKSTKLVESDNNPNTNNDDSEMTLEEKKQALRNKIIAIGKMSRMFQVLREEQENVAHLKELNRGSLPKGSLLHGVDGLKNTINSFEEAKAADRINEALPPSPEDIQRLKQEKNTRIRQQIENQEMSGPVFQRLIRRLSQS
Kind of assay: calcineurin pathway inhibitors in yeast reporter, dose response, S. cerevisiae, CDRE-lacZ, luminescence, secondary (AID 2388).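 Further: yeast reporter cells carrying a calcineurin-responsive lacZ construct stimulated with calcium chloride; luminescent beta-galactosidase reporter signal in whole cells rather than isolated phosphatase activity; potency for inhibition where a drop in reporter signal means calcineurin blockade.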 The format is functional, cell-based.

Assay [8] deals with ATP-dependent molecular chaperone HSP82 (Candida albicans (strain WO-1) (Yeast), UniProt C4YTQ8). Put plainly: loss of DOC-induced GRE-beta-galactosidase reporter signal, dose response, Hsp90 inhibitor project, S. cerevisiae, luminescence (AID 2400).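 Further: beta-galactosidase luminescence from glucocorticoid response element reporter as proxy for Hsp90 function; inhibitor potency where signal loss means Hsp90 inhibition.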 Format: functional, cell-based.
Sequence of ATP-dependent molecular chaperone HSP82 (C4YTQ8 whole entry): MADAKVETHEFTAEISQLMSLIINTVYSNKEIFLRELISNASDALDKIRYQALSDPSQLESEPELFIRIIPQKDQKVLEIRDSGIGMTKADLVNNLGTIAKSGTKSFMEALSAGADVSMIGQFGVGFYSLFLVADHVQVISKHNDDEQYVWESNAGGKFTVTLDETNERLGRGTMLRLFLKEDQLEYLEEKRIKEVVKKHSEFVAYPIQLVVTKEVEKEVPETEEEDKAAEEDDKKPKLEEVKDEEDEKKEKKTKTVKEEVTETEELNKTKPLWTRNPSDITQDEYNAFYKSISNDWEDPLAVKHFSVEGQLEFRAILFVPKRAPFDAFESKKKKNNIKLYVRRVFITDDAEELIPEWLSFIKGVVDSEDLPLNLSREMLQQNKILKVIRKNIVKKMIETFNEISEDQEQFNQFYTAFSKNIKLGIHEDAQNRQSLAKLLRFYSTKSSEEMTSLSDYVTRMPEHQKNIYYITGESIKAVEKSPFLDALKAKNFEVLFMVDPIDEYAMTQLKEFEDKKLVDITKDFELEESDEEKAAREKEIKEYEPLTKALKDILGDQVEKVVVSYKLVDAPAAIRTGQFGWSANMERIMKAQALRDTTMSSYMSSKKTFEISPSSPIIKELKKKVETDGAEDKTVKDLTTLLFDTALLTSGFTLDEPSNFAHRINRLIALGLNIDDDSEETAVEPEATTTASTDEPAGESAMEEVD
Assay [9] in a line: C. albicans growth with fluconazole, confirmation, fluorescence, retest (AID 2467). Format: functional, cell-based.
Assay [10] addresses T6, Oxysterols receptor LXR-beta (Homo sapiens, UniProt P55055).
T6 sequence (P55055 whole entry): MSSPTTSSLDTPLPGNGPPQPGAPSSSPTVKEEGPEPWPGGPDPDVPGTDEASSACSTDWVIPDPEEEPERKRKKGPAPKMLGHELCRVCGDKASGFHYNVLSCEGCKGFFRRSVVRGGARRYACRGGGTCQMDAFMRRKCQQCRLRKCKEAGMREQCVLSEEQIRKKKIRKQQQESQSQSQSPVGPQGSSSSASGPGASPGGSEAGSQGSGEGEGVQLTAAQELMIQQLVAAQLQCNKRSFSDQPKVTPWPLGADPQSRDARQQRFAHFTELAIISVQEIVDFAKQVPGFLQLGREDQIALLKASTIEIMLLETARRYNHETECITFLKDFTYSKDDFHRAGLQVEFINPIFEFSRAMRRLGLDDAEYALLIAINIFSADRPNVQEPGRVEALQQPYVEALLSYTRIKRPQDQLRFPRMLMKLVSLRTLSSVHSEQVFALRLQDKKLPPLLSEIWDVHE
The format is functional, cell-based.

Assay [11] has as its target T7, Nucleotide-binding oligomerization domain-containing protein 1 (Homo sapiens, UniProt Q9Y239).
T7 sequence (Q9Y239 whole entry): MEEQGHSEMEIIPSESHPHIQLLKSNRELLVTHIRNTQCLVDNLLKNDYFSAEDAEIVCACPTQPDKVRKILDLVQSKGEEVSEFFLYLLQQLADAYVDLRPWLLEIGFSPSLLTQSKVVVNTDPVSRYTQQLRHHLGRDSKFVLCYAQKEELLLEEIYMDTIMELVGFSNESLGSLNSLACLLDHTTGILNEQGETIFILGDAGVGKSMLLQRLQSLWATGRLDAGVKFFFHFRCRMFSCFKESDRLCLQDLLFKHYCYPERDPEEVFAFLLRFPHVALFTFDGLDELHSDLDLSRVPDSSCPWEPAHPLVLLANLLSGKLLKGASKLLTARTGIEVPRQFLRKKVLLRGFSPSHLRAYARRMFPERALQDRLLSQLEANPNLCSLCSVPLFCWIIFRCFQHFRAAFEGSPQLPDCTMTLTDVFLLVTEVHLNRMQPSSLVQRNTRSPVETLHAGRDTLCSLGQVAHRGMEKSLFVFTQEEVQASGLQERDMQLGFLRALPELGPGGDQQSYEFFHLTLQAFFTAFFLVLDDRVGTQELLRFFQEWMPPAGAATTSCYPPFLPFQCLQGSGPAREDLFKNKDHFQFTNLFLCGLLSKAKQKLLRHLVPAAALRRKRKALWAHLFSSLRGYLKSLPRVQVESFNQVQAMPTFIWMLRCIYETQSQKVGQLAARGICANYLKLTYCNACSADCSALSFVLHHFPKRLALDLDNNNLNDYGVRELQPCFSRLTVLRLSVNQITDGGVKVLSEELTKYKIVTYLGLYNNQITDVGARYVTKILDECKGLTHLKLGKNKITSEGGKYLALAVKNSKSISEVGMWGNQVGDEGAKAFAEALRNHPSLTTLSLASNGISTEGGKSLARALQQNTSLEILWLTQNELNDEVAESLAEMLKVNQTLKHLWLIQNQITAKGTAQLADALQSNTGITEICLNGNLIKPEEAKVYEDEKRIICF
Kind of assay: NOD1 signaling inhibitors, SAR follow-up, revised (AID 2333). The format is functional.

The target in assay [12] is T8, Nucleotide-binding oligomerization domain-containing protein 2 (Homo sapiens, UniProt Q9HC29). Put plainly: NOD2 signaling inhibitors, cell-based, luminescence, uHTS, HEK293 (AID 1566). The format is functional.
T8 sequence (Q9HC29 whole entry, the tested form may be a part): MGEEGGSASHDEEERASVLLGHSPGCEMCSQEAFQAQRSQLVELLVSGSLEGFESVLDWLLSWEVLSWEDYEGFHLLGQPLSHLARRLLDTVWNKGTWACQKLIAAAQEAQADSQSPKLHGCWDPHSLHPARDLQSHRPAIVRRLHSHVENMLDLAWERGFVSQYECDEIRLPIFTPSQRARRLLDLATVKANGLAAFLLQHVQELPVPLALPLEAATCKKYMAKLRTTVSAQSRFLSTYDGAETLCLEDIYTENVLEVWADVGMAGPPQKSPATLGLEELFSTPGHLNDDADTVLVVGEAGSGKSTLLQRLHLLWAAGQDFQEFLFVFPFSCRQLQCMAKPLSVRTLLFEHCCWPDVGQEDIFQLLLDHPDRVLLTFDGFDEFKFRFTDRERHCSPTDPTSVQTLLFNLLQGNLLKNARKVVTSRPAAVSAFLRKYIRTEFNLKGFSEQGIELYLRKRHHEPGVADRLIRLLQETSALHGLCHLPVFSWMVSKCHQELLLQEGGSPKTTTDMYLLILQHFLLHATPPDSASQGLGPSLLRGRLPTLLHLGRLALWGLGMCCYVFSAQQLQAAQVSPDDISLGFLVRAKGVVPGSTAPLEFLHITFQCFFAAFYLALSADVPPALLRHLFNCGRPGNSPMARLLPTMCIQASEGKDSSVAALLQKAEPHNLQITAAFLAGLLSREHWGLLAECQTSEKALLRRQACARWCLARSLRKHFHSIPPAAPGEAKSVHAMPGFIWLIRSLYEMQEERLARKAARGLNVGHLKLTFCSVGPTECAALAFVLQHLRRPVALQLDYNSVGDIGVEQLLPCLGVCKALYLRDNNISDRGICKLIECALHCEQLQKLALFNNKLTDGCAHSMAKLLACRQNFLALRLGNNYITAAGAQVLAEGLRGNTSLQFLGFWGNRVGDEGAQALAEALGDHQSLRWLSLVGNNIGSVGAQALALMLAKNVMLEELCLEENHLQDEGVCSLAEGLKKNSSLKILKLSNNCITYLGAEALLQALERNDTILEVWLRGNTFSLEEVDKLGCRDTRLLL
The target in assay [13] is T8, Nucleotide-binding oligomerization domain-containing protein 2. Kind of assay: PubChem AID 2334. Format: functional.
The target of a further assay is Tumor necrosis factor (Homo sapiens, UniProt P01375). Put plainly: TNFa-triggered NF-kB activation inhibitors, SAR follow-up, cell-based, revised (AID 2337). Format: functional.
Sequence of Tumor necrosis factor (P01375 whole entry): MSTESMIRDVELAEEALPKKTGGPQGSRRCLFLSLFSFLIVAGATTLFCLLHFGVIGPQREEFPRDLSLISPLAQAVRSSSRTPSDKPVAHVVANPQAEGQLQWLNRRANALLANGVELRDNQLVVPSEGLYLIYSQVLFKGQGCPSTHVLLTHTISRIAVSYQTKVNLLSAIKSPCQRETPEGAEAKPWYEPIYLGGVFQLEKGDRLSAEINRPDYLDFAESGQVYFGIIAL
Assay [14] deals with HEK293. Put plainly: SAR Analysis of small molecule inhibitors of B-cell specific antigen receptor-induced NF-kB activation in a HEK-293T cell line using a luminescence assay - Set 2. [Related pubchem assays (depositor defined):AID435022, AID435025, AID489021]. The format is functional, cell-based. The note with it: Homo sapiens.
Assay [15] has as its system HEK293. Kind of assay: cytotoxicity in HEK293T NF-kB-Luc cells, SAR follow-up, cytotoxicity control for NF-kB activator project, cell-based, resazurin fluorescence (AID 493251). Format: functional. The note with it: Homo sapiens.
The test system of another assay is Jurkat. Put plainly: SAR Analysis of small molecule inhibitors of […] specific antigen receptor-induced NF-kB activation in a Jurkat cell line using a luminescence assay - Set 3. [Related pubchem assays (depositor defined):AID435022, AID435025, AID465]. The format is functional, cell-based. To be noted: Homo sapiens.

The term IC50 denotes the concentration needed to halve the response being measured. The term EC50 denotes the midpoint of the concentration-response curve.

Calls of active or inactive are those of the source.

In the case of `Fc1ccc(-c2nc3c(Cl)cc(C(F)(F)F)cn3c2Cl)cc1`, the IC50 (in the assay with HEK293 [1]; in assay [4]) was > 67.6 µM (inactive) each time. The EC50 in assay [2] is 41.6 µM (active); in assay [3], 37.1 µM (active).
For `CCC(C)c1ccc(O)c(NC(=S)NC(=O)c2cccnc2)c1` (stereo unspecified), the IC50 in assay [5] is 14 µM (active). The EC50 is > 150 µM (inactive) in assay [6]; > 40 µM (inactive) on Beta-galactosidase; > 180 µM (inactive) in assay [7]; 48.9 µM (active) in [8]; 0.632 µM (active) in [9].
Regarding `Cc1ccc(-c2cc(-c3ccc(F)cc3)[nH]n2)c(O)c1`, the IC50 (in the assay with HEK293 [1]; in assay [4]) was > 67.5 µM (inactive) in each case. Besides, the EC50 (in “cells”; in [10]) was > 67.5 µM (inactive) each time.
Consider `Fc1ccc(NC(=S)Nc2nccs2)cc1`, for which the IC50 in assay [5] is 25.2 µM (not active); in assay [11] it was > 20 µM (inactive); in assay [13], > 20 µM (inactive); at Tumor necrosis factor it was > 20 µM (inactive). Moreover, the results for the EC50 (in assay [12]; on Beta-galactosidase) were > 20 µM (inactive) and > 40 µM (inactive), respectively.
In the case of `CC(C)(C)c1ccc(-c2noc(CCC(=O)Nc3cccc([N+](=O)[O-])c3)n2)cc1`, the values for the IC50 with HEK293 [14], with HEK293 [15] and in the assay with Jurkat were 3.73 µM (active), 22.1 µM (inactive) and 60.7 µM (inactive), respectively.
For `CCOc1ccc(-c2nc(CSCC(=O)NCCc3ccc(C)cc3)c(C)o2)cc1` the same measures were 40.2 µM (inactive), > 80 µM (inactive) and 49.8 µM (inactive).
